One assay deals with T1, Tip60 (Homo sapiens, UniProt Q92993).
T1 construct: purchased Active Motif 81975
Put plainly: In vitro histone acetylation activity assay (Tip60). The note with it: 20 μM compound, vs Tip60+DMSO. In kind it is biochemical. As for the experimental part:
HAT assays were performed according to manufacturer's instructions in HAT Assay Kit (Active Motif 56100). Briefly, 375 ng Tip60 protein (Active motif: 81975) was incubated with 50 μM Histone H4 peptide, 50 μM Acetyl-CoA and indicated drug concentrations for 30 minutes at room temperature. After stopping the reaction and developing free sulfhydryl groups, […] was recorded at excitation 360-390 nm and emission 460-490 nm using Glomax fluorescence microplate reader. Specific enzyme activity (pmol/min/μg) was calculated by 1. Subtracting background fluorescence from that of assay samples to obtain arbitrary fluorescence units (AFU); and (2) Dividing the difference by the incubation time to obtain AFU/minute. 3. Dividing the AFU/minute by the slope of standard curve in AFU/pmol to obtain the rate in pmol/minute. 4. Dividing pmol/min by the amount of enzyme used to obtain final readings in pmol/minute/μg.

In assay [1] the test system is Drosophila Alzheimer's disease model (APP). Put plainly: Larval line crossing assay in APP Alzheimer's disease model. In kind it is in vivo. The note with it: 3rd instar APP larvae, compound in fly food, range of concentrations.
Assay [2] relates to Drosophila Tip60 knockdown model. The assay is described as follows: Larval line crossing / reaching the wall assay in Tip60-RNAi knockdown model. Type of assay: in vivo. The note with it: for rescue of Tip60 knockdown induced locomotion deficits (line crossing in 30 seconds): 3rd instar Tip60-RNAi larvae, compound in fly food.
The subject of assay [3] is Drosophila Alzheimer's disease model (APP). Put plainly: Eclosion assay (lethality) in APP Alzheimer's disease model. In kind it is in vivo. The note with it: compound in fly food. As for the experimental part: All fly lines were raised on standard yeast Drosophila medium (Applied Scientific Jazz Mix Drosophila Food, Thermo Fischer Scientific) at 25° C. with 12/12-h light/dark cycle. The pan-neuronal driver elav^C155-Gal4, transgenic Tip60-RNAi-mediated knock-down (UAS-Tip60 RNAi) and the transgenic UAS lines carrying human APP 695 isoform (UAS-APP) were obtained from Bloomington Drosophila Stock Center. For neural Tip60 knockdown and APP expression, the elav^C155-Gal4 driver line was crossed with UAS-Tip60RNAi or UAS-APP and the progeny was collected as Tip60 knockdown model (elav^C155-Gal4/UAS-Tip60 RNAi) or APP associated AD model (elav^C155-Gal4/UAS-APP). For wild-type control, the elav^C155-Gal4 driver line was crossed with itself. Model validation was performed by confirming reduced Tip60 mRNA levels in Tip60 RNAi model as compared to wildtype using real-time PCR.
Compounds were synthesized by Enamine, Princeton Molecular and ChemBridge. […]
The P10 and P13 compound's functional effectiveness in rescuing AD associated lethality that occurs as a culmination of later stage neurodgenerative progression was assessed using an eclosion assay (FIG. 9C). Briefly, larvae were reared on food either with compounds dissolved in DMSO or without compounds (DMSO vehicle) and the number of flies that eclosed from their pupal cases over a 7 day period were counted.

For another assay, the target named is purified p300 HAT (Homo sapiens, UniProt Q09472). The assay is described as follows: In vitro histone acetylation activity assay (p300). In kind it is biochemical. To be noted: HAT assays, 20 μM.
Sequence of purified p300 HAT (Q09472 whole entry, species assumed): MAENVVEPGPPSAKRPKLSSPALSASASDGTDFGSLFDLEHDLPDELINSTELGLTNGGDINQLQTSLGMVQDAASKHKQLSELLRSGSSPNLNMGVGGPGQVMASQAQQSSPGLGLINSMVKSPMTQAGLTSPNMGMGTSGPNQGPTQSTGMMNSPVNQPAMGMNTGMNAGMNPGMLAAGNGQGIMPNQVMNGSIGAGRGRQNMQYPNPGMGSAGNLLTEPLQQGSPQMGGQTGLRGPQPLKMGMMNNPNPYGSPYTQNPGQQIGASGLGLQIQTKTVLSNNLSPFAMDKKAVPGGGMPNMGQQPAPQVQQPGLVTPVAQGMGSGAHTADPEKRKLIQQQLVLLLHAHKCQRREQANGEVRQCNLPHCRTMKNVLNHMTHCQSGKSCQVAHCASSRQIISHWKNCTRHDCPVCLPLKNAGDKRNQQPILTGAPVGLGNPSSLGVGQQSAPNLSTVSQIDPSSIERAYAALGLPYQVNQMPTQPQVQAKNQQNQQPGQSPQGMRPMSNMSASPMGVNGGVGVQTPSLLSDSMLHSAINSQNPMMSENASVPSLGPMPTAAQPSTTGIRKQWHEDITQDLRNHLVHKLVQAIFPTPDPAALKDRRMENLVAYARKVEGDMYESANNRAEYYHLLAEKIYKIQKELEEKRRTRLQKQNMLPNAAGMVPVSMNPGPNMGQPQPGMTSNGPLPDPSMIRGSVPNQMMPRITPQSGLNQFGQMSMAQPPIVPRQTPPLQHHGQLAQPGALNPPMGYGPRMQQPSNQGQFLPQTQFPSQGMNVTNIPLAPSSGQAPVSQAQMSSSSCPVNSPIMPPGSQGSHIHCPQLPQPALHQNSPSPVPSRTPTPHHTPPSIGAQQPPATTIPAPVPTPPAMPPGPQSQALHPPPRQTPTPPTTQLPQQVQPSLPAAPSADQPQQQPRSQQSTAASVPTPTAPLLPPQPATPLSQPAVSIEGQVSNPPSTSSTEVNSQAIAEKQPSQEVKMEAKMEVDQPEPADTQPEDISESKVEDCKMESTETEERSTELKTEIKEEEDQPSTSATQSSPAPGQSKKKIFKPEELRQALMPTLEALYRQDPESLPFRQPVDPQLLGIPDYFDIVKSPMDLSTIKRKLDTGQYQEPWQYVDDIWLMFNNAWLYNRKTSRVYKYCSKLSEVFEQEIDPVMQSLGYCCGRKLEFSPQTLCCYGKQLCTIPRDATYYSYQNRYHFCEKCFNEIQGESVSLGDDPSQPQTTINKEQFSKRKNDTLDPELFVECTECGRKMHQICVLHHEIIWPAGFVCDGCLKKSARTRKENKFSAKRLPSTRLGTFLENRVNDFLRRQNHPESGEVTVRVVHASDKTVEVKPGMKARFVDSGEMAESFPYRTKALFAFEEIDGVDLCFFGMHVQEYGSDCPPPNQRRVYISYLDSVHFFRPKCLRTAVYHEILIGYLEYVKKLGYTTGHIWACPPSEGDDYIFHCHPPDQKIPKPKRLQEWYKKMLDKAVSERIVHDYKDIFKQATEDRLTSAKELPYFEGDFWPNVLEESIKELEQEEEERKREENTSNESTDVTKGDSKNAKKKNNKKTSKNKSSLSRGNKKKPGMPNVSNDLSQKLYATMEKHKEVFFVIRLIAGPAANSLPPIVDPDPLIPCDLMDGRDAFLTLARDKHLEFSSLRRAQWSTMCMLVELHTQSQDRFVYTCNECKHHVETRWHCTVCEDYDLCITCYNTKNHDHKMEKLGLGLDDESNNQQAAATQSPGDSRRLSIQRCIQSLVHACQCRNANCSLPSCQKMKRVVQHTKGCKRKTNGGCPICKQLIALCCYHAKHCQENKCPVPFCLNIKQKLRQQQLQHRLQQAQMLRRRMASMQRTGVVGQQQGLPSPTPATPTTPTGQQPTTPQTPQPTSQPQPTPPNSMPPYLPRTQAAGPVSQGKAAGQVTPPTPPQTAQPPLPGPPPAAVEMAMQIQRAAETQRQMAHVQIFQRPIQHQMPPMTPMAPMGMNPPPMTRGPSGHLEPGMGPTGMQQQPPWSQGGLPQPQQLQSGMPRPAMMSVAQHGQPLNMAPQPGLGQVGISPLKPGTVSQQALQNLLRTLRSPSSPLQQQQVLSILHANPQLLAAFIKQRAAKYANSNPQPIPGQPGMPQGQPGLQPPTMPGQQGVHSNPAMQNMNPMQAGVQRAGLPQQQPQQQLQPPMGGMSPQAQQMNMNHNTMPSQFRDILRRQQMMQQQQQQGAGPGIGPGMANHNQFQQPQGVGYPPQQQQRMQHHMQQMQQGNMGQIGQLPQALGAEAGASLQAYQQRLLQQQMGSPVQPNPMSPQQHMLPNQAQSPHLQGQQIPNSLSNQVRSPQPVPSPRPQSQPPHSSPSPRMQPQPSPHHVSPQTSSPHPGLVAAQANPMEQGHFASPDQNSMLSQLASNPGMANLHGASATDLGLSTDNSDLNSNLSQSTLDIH

“Also recorded” adds a separate entry of the source.

T1 sequence (Q92993 whole entry): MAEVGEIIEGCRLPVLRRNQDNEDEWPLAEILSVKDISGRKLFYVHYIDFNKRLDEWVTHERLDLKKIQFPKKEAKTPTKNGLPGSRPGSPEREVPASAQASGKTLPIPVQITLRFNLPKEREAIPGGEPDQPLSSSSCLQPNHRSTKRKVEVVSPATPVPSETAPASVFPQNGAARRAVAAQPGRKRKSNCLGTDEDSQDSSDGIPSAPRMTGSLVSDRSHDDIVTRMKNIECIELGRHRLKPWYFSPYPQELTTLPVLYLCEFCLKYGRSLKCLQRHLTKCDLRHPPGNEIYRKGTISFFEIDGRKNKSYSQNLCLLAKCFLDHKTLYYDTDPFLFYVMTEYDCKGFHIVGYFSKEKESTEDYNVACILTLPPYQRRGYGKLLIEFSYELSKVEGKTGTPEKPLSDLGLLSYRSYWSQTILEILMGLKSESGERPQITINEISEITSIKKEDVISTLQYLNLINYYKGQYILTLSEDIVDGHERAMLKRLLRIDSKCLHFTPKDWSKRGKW

With `CC(=O)Nc1cccc(CNC(=O)c2cnc3ccccc3c2C(F)(F)F)c1` [Compound P13, N-(3-acetamidobenzyl)-4-(trifluoromethyl)quinoline-3-carboxamide], the “effect on Tip60's HAT activity (Histone H4 acetylation, fluorescence)” value (“effect on Tip60's HAT activity” below) at Tip60 is recorded as “enhanced Tip60's HAT activity; also recorded: highest level of Tip60 HAT activation”. Further, the “rescue of AD associated locomotion defects (line crossing, reaching wall)” value (“rescue … (line crossing, reaching wall)” below) in assay [1] was “consistent and robust rescue”. Also, in assay [2] (1 μM drug concentration), the “ability of larvae to cross plate and reach the wall” value was “improved the performance of larvae in reaching the wall”; the “restoration of locomotor activity (line crossing)” value is “best performer in restoring locomotor activity to wild-type levels”. Moreover, the “rescue of Tip60 knockdown induced locomotion deficits (line crossing in 30 seconds)” value (shortened to “rescue … (line crossing in 30 seconds)”) in assay [2] was “rescue locomotor speed defect”. For the same molecule, the “rescue of AD associated lethality (flies eclosed over 7 day period)” value in assay [3] is on record as “significant rescue of lethality; also recorded: more robust effects”. The “specificity for Tip60 over p300” value on purified p300 HAT is recorded as “highest specificity for Tip60 over p300”.
As for `Cc1nc2c(cnn2C(C)C)cc1C(=O)NCc1ccc([C@H](C)O)c(C)n1` [Compound P10, (S)-N-((5-(1-hydroxyethyl)-6-methylpyridin-2-yl)methyl)-1-isopropyl-6-methyl-1H-pyrazolo[3,4-b]pyridine-5-carboxamide], the “effect on Tip60's HAT activity” value at Tip60 is “enhanced Tip60's HAT activity; also recorded: highest level of Tip60 HAT activation”. Further, the “rescue … (line crossing, reaching wall)” value in assay [1] is “consistent and robust rescue”. Further, the “rescue … (line crossing in 30 seconds)” value in assay [2] is “rescue locomotor speed defect”. Also, in assay [3], the “rescue of AD associated lethality (flies eclosed over 7 day period)” value is on record as “significant rescue of lethality”. Moreover, the “specificity for Tip60 over p300” value on purified p300 HAT is “highest specificity for Tip60 over p300”.
On to `CCOc1ccccc1C(=O)Nc1cnn(Cc2ccc(C)cc2)c1` [Compound P6, 2-ethoxy-N-(1-(4-methylbenzyl)-1H-pyrazol-4-yl)benzamide], for which the “effect on Tip60's HAT activity” value at Tip60 is recorded as “enhanced Tip60's HAT activity; also recorded: highest level of Tip60 HAT activation”. In addition, the “rescue … (line crossing, reaching wall)” value in assay [1] is “high rescue overall, its action was inconsistent”. For the same molecule, the “rescue … (line crossing in 30 seconds)” value in assay [2] is “rescue locomotor speed defect; also recorded: inconsistent rescue results”.
